Reference: article PMC9569420 (Communications Biology, 2022)
Where “and” joins values, the source holds several entries; their conditions need not be identical. Equal values may be shown once.

Assays:
[1] = biological target: T1, BRSK1 (Homo sapiens, UniProt Q8TDC3); assay: HotSpot kinase assay; type: biochemical; settings: read-out: % Enzyme Activity (relative to DMSO controls)
T1 construct: purchased Reaction Biology Corporation

[2] = biological target: T2, CDK2/CYCLIN E (Homo sapiens, UniProt P24941); assay: HotSpot kinase assay; type: biochemical; settings: read-out: % Enzyme Activity (relative to DMSO controls)
T2 construct: purchased Reaction Biology Corporation

[3] = biological target: T3, CLK2 (Homo sapiens, UniProt P49760); assay: HotSpot kinase assay; type: biochemical; settings: read-out: % Enzyme Activity (relative to DMSO controls)
T3 construct: purchased Reaction Biology Corporation

[4] = biological target: T4, DCAMKL2 (Homo sapiens, UniProt Q8N568); assay: HotSpot kinase assay; type: biochemical; settings: read-out: % Enzyme Activity (relative to DMSO controls)
T4 construct: purchased Reaction Biology Corporation
T4 sequence (Q8N568 whole entry): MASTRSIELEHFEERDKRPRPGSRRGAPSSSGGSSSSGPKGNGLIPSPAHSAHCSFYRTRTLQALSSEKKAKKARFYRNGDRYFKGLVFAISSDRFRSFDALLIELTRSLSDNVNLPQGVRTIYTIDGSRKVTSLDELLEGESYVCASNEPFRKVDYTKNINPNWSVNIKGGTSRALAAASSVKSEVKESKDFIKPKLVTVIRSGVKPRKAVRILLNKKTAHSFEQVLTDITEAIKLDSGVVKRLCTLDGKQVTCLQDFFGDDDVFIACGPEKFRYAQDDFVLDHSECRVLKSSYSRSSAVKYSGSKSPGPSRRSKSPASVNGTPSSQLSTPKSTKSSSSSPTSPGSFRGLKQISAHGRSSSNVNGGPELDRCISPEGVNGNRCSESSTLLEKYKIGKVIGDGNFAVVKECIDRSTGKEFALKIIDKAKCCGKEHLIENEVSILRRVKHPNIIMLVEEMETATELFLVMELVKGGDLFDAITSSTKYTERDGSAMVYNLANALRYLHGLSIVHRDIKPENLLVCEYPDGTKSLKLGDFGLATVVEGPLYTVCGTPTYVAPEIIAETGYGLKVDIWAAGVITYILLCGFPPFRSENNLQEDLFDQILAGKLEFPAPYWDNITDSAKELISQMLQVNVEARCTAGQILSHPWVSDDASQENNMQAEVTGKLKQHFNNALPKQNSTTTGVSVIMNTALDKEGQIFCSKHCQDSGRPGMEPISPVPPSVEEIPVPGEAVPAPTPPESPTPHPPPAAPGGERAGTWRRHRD

[5] = biological target: T5, DMPK2 (Homo sapiens, UniProt Q6DT37); assay: HotSpot kinase assay; type: biochemical; settings: read-out: % Enzyme Activity (relative to DMSO controls)
T5 construct: purchased Reaction Biology Corporation

[6] = biological target: T6, DYRK1/DYRK1A (Homo sapiens, UniProt Q13627); assay: HotSpot kinase assay; type: biochemical; settings: read-out: % Enzyme Activity (relative to DMSO controls)
T6 construct: purchased Reaction Biology Corporation

[7] = biological target: T7, EPHA4 (Homo sapiens, UniProt P54764); assay: HotSpot kinase assay; type: biochemical; settings: read-out: % Enzyme Activity (relative to DMSO controls)
T7 construct: purchased Reaction Biology Corporation
T7 sequence (P54764 20-986): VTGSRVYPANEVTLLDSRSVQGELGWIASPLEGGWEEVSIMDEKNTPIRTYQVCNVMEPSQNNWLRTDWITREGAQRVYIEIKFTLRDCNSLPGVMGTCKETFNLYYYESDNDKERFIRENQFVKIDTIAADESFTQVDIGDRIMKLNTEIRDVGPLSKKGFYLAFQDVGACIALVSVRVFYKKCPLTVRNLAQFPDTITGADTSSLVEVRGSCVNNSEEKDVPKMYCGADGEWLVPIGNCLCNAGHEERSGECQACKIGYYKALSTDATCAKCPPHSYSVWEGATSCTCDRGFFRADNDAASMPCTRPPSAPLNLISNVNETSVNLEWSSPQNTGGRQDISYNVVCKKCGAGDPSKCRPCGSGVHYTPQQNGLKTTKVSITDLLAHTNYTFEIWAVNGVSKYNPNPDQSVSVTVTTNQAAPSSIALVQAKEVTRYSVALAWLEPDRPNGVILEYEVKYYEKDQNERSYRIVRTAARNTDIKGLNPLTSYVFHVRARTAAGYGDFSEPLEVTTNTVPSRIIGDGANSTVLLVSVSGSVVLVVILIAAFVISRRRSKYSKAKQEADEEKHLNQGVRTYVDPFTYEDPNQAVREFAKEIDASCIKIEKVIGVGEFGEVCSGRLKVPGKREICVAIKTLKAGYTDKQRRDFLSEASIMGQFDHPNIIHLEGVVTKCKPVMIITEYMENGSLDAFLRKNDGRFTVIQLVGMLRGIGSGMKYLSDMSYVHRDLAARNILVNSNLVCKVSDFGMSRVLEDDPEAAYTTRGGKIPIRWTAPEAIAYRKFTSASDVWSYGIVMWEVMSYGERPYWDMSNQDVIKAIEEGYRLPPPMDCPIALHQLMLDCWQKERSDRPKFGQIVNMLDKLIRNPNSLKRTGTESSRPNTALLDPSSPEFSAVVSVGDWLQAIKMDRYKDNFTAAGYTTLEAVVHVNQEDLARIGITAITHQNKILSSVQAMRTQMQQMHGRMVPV

[8] = biological target: T8, ERK5/MAPK7 (Homo sapiens, UniProt Q13164); assay: HotSpot kinase assay; type: biochemical; settings: read-out: % Enzyme Activity (relative to DMSO controls)
T8 construct: purchased Reaction Biology Corporation
T8 sequence (Q13164 whole entry): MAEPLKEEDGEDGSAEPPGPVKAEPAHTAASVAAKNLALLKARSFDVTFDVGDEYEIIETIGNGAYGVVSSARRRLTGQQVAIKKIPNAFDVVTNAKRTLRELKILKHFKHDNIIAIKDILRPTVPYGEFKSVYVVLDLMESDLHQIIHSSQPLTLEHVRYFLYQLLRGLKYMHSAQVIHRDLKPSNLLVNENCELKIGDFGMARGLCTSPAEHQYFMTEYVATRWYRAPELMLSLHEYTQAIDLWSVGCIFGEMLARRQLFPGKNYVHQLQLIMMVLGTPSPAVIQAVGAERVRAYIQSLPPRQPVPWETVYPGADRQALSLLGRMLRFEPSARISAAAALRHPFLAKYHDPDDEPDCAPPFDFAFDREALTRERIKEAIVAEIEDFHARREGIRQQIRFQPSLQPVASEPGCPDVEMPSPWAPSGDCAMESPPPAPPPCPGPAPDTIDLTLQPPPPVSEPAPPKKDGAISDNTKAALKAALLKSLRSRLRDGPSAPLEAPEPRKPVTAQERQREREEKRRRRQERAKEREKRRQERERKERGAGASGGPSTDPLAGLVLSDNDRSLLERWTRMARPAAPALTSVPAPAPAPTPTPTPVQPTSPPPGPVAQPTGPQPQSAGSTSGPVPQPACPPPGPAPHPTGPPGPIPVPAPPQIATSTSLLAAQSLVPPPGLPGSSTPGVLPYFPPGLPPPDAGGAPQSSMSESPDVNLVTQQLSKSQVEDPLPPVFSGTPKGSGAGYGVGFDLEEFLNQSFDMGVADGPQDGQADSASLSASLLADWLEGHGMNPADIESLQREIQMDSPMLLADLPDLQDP

[9] = biological target: T9, ERK7/MAPK15 (Homo sapiens, UniProt Q8TD08); assay: HotSpot kinase assay; type: biochemical; settings: read-out: % Enzyme Activity (relative to DMSO controls)
T9 construct: purchased Reaction Biology Corporation

[10] = biological target: T10, FGFR3 (Homo sapiens, UniProt P22607); assay: HotSpot kinase assay; type: biochemical; settings: read-out: % Enzyme Activity (relative to DMSO controls)
T10 construct: purchased Reaction Biology Corporation

[11] = biological target: T11, FRK/PTK5 (Homo sapiens, UniProt P42685); assay: HotSpot kinase assay; type: biochemical; settings: read-out: % Enzyme Activity (relative to DMSO controls)
T11 construct: purchased Reaction Biology Corporation

[12] = biological target: T12, LIMK1 (Homo sapiens, UniProt P53667); assay: HotSpot kinase assay; type: biochemical; settings: read-out: % Enzyme Activity (relative to DMSO controls)
T12 construct: purchased Reaction Biology Corporation
T12 sequence (P53667 whole entry): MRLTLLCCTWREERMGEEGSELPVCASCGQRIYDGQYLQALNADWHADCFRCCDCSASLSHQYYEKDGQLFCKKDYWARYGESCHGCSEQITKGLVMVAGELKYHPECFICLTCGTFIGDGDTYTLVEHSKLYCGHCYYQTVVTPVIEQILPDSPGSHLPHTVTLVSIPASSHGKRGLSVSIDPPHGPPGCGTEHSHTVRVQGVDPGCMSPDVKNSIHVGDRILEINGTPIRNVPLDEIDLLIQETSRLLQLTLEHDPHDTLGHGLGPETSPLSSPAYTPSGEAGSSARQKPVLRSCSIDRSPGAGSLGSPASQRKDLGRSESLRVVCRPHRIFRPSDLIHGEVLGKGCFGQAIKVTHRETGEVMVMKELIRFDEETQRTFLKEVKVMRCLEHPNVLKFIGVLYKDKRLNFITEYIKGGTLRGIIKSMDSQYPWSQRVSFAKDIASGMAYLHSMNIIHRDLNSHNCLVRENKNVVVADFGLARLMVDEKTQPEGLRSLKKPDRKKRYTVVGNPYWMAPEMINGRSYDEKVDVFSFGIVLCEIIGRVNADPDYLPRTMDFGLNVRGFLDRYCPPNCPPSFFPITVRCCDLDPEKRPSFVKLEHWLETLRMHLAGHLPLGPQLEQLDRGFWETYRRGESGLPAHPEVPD

[13] = biological target: T13, MASTL (Homo sapiens, UniProt Q96GX5); assay: HotSpot kinase assay; type: biochemical; settings: read-out: % Enzyme Activity (relative to DMSO controls)
T13 construct: purchased Reaction Biology Corporation

[14] = biological target: T14, MKK4 (Homo sapiens, UniProt P45985); assay: HotSpot kinase assay; type: biochemical; settings: read-out: % Enzyme Activity (relative to DMSO controls)
T14 construct: purchased Reaction Biology Corporation

[15] = biological target: T15, PAK5 (Homo sapiens, UniProt Q9P286); assay: HotSpot kinase assay; type: biochemical; settings: read-out: % Enzyme Activity (relative to DMSO controls)
T15 construct: purchased Reaction Biology Corporation

[16] = biological target: T16, PKG2/PRKG2 (Homo sapiens, UniProt Q13237); assay: HotSpot kinase assay; type: biochemical; settings: read-out: % Enzyme Activity (relative to DMSO controls)
T16 construct: purchased Reaction Biology Corporation

[17] = biological target: T17, SBK1 (Homo sapiens, UniProt Q52WX2); assay: HotSpot kinase assay; type: biochemical; settings: read-out: % Enzyme Activity (relative to DMSO controls)
T17 construct: purchased Reaction Biology Corporation

[18] = biological target: T18, STK21/CIT (Homo sapiens, UniProt O14578); assay: HotSpot kinase assay; type: biochemical; settings: read-out: % Enzyme Activity (relative to DMSO controls)
T18 construct: purchased Reaction Biology Corporation

[19] = biological target: T19, STK38L/NDR2 (Homo sapiens, UniProt Q9Y2H1); assay: HotSpot kinase assay; type: biochemical; settings: read-out: % Enzyme Activity (relative to DMSO controls)
T19 construct: purchased Reaction Biology Corporation

[20] = biological target: T20, TNK1 (Homo sapiens, UniProt Q13470); assay: HotSpot kinase assay; type: biochemical; settings: read-out: % Enzyme Activity (relative to DMSO controls)
T20 construct: purchased Reaction Biology Corporation

[21] = biological target: T21, TSSK2 (Homo sapiens, UniProt Q96PF2); assay: HotSpot kinase assay; type: biochemical; settings: read-out: % Enzyme Activity (relative to DMSO controls)
T21 construct: purchased Reaction Biology Corporation

[22] = biological target: T22, TYK1/LTK (Homo sapiens, UniProt P29376); assay: HotSpot kinase assay; type: biochemical; settings: read-out: % Enzyme Activity (relative to DMSO controls)
T22 construct: purchased Reaction Biology Corporation

[23] = biological target: T23, YSK4/MAP3K19 (Homo sapiens, UniProt Q56UN5); assay: HotSpot kinase assay; type: biochemical; settings: read-out: % Enzyme Activity (relative to DMSO controls)
T23 construct: purchased Reaction Biology Corporation

[24] = biological target: T24, EIF2AK4 (Homo sapiens, UniProt Q9P2K8); assay: HotSpot kinase assay; type: biochemical; settings: read-out: % Enzyme Activity (relative to DMSO controls)
T24 construct: purchased Reaction Biology Corporation
T24 sequence (Q9P2K8 whole entry): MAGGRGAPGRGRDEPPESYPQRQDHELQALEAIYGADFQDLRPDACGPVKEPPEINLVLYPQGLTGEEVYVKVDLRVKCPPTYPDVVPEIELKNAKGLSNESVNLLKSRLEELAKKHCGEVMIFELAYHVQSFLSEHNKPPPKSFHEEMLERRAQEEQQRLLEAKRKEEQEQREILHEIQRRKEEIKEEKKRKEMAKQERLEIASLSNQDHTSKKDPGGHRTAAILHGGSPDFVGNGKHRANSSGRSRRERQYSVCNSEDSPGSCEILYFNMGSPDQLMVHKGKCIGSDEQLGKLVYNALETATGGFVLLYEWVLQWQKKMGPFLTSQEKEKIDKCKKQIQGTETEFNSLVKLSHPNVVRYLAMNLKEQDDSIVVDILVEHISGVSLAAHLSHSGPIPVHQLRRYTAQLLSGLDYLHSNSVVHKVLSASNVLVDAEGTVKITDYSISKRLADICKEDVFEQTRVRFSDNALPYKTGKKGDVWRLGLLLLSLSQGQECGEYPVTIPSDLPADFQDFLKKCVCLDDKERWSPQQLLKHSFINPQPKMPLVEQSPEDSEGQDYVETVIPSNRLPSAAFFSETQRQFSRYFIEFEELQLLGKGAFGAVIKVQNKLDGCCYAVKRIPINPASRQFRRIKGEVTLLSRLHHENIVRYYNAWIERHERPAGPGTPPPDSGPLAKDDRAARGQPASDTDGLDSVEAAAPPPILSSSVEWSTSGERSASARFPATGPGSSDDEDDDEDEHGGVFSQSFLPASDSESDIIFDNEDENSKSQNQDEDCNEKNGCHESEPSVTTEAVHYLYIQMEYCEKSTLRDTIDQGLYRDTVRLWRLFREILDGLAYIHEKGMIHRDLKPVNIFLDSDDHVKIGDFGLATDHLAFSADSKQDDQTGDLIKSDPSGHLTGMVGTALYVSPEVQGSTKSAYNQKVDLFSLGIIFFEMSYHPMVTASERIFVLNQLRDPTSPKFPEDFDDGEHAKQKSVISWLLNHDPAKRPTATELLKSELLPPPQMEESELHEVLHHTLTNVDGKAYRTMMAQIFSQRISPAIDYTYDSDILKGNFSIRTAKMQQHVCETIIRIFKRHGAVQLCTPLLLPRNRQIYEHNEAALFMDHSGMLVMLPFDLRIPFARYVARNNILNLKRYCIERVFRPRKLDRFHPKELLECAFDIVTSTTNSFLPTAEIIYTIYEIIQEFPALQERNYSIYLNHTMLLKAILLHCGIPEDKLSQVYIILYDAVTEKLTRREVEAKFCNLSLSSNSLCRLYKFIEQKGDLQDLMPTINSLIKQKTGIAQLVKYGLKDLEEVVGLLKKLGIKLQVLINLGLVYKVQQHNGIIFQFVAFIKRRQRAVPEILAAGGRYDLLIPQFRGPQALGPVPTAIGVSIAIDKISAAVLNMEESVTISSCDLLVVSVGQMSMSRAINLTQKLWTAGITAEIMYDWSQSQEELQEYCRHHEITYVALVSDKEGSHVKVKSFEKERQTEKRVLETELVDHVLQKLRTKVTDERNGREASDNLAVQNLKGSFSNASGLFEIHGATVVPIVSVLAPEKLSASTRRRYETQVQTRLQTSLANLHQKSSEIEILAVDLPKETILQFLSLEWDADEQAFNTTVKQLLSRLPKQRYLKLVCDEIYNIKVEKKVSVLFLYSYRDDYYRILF

[25] = viability of confluent cells; type: cell-based, human; settings: human, HaCat cells at 90–100% confluence, 120 h, replicates (Fig 1c source data), read-out: viability, odu as a percentage of the DMSO control
[26] = test system: HaCat cells; assay: viability of confluent cells; type: cell-based, human; settings: 10 μM; for viability, odu as a percentage of the DMSO control: replicates (Fig 1c source data)
[27] = test system: HSV-2(G); assay: HSV plaque assay, primary vaginal cells; type: cell-based; settings: Human alphaherpesvirus 2, read-out: inhibition of HSV-2 infection
Method: After 48 h incubation, plaques were counted by immunoassay using an anti–human IgG antibody peroxidase conjugate (PA1-86064, Thermo Fisher)[33]. […] Western blots were prepared and probed for gD as a marker of bound virus and β-actin as a control.

[28] = test system: HSV-1 K26GFP; assay: capsid entry, confocal imaging, HaCat cells; type: cell-based; settings: 1 h post-temperature shift; CIMSS 10 μM, antibody 2 μg/ml
Method: To quantify viral entry, cells were synchronously infected by allowing virus to bind to cells at 4°C for 4 h, washed, and then transferred to 37 °C. CIMSS or control DMSO was added at the time of temperature shift. At indicated times post-temperature shift, the cells were treated with a low pH buffer to inactivate virus that had not penetrated, washed, overlaid with medium containing methyl cellulose and viral plaques were counted at 48 h. Entry was also assessed by immunoblotting nuclear extracts for VP16. […] Nuclear extracts were prepared after 1 h and analyzed by western blot with antibodies targeting VP16, histone H1 and golgin-97[5]. The non-nuclear fraction was also probed for golgin-97 as a positive control. […] After 1 or 4 h of incubation, the cells were fixed. Plasma membranes were stained using Image -IT^TM LIVE Plasma Membrane kit and nuclei were stained with DAPI (Thermo Fisher Scientific, Cat 134406). The percentage of GFP + nuclei was determined by counting ~200 cells over 3–4 fields. Images were obtained with Leica SP8 microscope (objective 63 × 1.4); xz images were captured with optical slice 0.6 µm, 25–30 slices per image.

[29] = test system: intracellular Ca2+ response to HSV-2(G); assay: calcium kinetic measurements (Fura-2), HaCat cells; type: cell-based, human; settings: for mean calcium released: CIMSS without virus (Fig 4b source data)
Method: The cells were then transferred to SpectraMaxMF^e temperature-regulated chamber at 37 °C (Molecular Devices Ca) without washing; photometric data for intracellular Ca^2+ concentration [Ca^2+] were generated by exciting cells at 340 and 380 nm and measuring emission at 510 nm every minute for one hour using SoftMaxPro. 5.4 software (Molecular Devices). An intracellular calibration was performed with each experiment by determining the fluorescence ratio (340:380) in the presence of Ca-free 10 mM K2EGTA buffer (Rmin) and 10 mM CaEGTA buffer containing 10 µM ionomycin (Rmax) (C-3008, Calcium Calibration Buffer Kit #1, Invitrogen Molecular Probes).

SMILES: CO[C@@H]1[C@H](N(C)C(=O)CCC(=O)NCc2cn(CCCS(=O)(=O)O)nn2)C[C@H]2O[C@]1(C)n1c3ccccc3c3c4c(c5c6ccccc6n2c5c31)C(=O)NC4 [CIMSS]
- remaining activity at 10 µM [1]: 1.55%
- remaining activity at 10 µM [2]: 7.89%
- remaining activity at 10 µM [3]: 4.13%
- remaining activity at 10 µM [4]: 87.7%
- remaining activity at 10 µM [5]: 10.9%
- remaining activity at 10 µM [6]: 2.33%
- remaining activity at 10 µM [7]: 30.5%
- remaining activity at 10 µM [8]: 84.5%
- remaining activity at 10 µM [9]: 27.9%
- remaining activity at 10 µM [10]: 4.66%
- remaining activity at 10 µM [11]: 4.49%
- remaining activity at 10 µM [12]: 0.88%
- remaining activity at 10 µM [13]: 33.8%
- remaining activity at 10 µM [14]: 99%
- remaining activity at 10 µM [15]: 7.72%
- remaining activity at 10 µM [16]: 1.99%
- remaining activity at 10 µM [17]: 78.8%
- remaining activity at 10 µM [18]: 81.7%
- remaining activity at 10 µM [19]: 22.7%
- remaining activity at 10 µM [20]: 3.88%
- remaining activity at 10 µM [21]: 21.2%
- remaining activity at 10 µM [22]: 7.18%
- remaining activity at 10 µM [23]: 3.4%
- remaining activity at 10 µM [24]: 9.5%
- viability at 120 h, 10 µM [25]: 98%
- viability, odu as a percentage of the DMSO control ([26]; 24 h): 123% and 93.2% and 107%
- viability, odu as a percentage of the DMSO control ([26]; 120 h): 88.4% and 84%
- cytotoxicity ([26]; up to 120 h): little or no cytotoxicity
- inhibition at 10 µM [27]: > 75%
- percentage of GFP + cells [28]: significantly decreased
- extended Ca2+ release ([29]; 10 µM, first hour pi): significant reduction
- initial Ca2+ transient ([29]; 10 µM, first three minutes): did not block
- mean calcium released ([29]; 3 minutes): 38.88 and 30.45 and 39.3074 and 44.7233
- mean calcium released ([29]; 1 hour): 90.67 and 95.94 and 99.48 and 102.73
